This assay concerns RPL11-insufficient Lin-Kit+ HSPCs. The assay can be described thus: Erythroid differentiation of Lin-Kit+ HSPCs from tamoxifen-treated RPL11+/lox mice. The class given is cell-based, mouse. To be noted: SD208; 8 days; three RPL11+/lox mice; without SD208 31.2, 26.4, 18.6%; Fig. 8b. On the procedure:
Cells were counted and assessed for cell surface expression of CD235. b Lin-Kit^+ hematopoietic progenitors were obtained from three mouse embryos expressing tetracycline-inducible shRNA against RPS19 at day E14.5 or three untreated mice, and thee mature RPL11^+/+ or three mature RPL11^+/lox mice treated with tamoxifen for eight weeks. […] Values were expressed as a percentage relative to untreated controls. c, d Intracellular phosphorylation of NLK at […] was determined by capillary electrophoresis using the Peggy SueTM Automated Western blotting platform. […] After counting the total cell population, the ratio of CD235^+ erythroblasts was determined by flow cytometry and number of CD235^+ erythroblasts calculated. This was expressed as a percentage of the average number of erythroid cells present in untreated healthy controls. f NLK phosphorylation was assessed by capillary electrophoresis as above. Bars represent means ± SD with individual data points overlaid. […] Statistics: two-tailed Student's t test, significant *p < 0.05. Also see Supplementary Fig. 8. Source data are provided as a Source Data file. Three mature RPL11^+/lox mice were treated with tamoxifen for eight weeks to induce heterozygous deletion of RPL11. As controls, three different RPL11^+/+ littermates of the same mouse strain were treated with tamoxifen.

“And” between values parts separate entries of the source, which are not always exact repeats. Identical values can stand only once.

Take `Fc1ccc(Cl)cc1-c1nc(Nc2ccncc2)c2nccnc2n1` [SD208]: the “erythropoiesis, % of controls” value is 57.3% and 56.8% and 50.3%.

(Values after PMC7334220, “Diamond Blackfan anemia is mediated by hyperactive Nemo-like kinase” (Nature Communications, 2020).)
